The values below come from publication PMC10455244, “Alpha-Mangostin: A Potent Inhibitor of TRPV3 and Pro-Inflammatory Cytokine Secretion in Keratinocytes” (International Journal of Molecular Sciences, 2023).

The term IC50 denotes the midpoint of a concentration-inhibition curve. The term viability denotes a per cent measure of how many cells are alive, often set against a control. Read a low viability as more harm to the cells.

In one data set the test system is TRPV3. The conditions noted are these: read-out: IC50 (µM), channel inhibited TRPV3; cited from earlier work.
In another data set the test system is TRPV1. The following applies: read-out: IC50 (µM), channel inhibited TRPV1; cited from earlier work.
Another data set concerns TRPV2. Set-up: method as in PMID 28333079. The conditions noted are these: read-out: IC50 (µM), channel inhibited TRPV2; cited from earlier work.
The subject of a further data set is TNF-α. The data set can be described thus: ELISA, TNF-α release in NHEK. Type of data set: cell-based, human. The conditions noted are these: 300 µM carvacrol alone, 24 h. From the text:
(§1) Constitutive activation of TRPV3 due to continuous stimulation or the presence of Olmsted mutations causes noticeable skin inflammation due to the increased secretion of pro-inflammatory cytokines from the keratinocytes. Besides, in atopic dermatitis (AD), cytokine release from keratinocytes contributes to the inflammatory environment, which drives many characteristic AD symptoms. Therefore, we determined the effect of TRPV3 activation on cytokine release instead of TRPV3 expression and evaluated whether alpha-mangostin suppressed TRPV3-mediated cytokine secretion in normal human keratinocytes. The levels of secreted cytokines (interleukin (IL)-6, IL-8, and tumor necrosis factor-alpha (TNF-α)) were measured using enzyme-linked Immunosorbent assay (ELISA) kits due to their high sensitivity and quantitation ability. The cells were induced with 300 µM carvacrol, with or without 1 µM alpha-mangostin, and 10 µM 74a.
(§2) Figure 5 Alpha-mangostin (α-MG) inhibited carvacrol-induced cytokine release in NHEK cells and rescued carvacrol-induced cell death. (A) Alpha-mangostin inhibited the carvacrol-induced release of IL-8 and IL-6 in NHEK. Cells were induced by 300 µM carvacrol with or without either 1 µM alpha-mangostin or 10 µM 74a for 24 h before the ELISA assay. (B) Alpha-mangostin reduced cell death caused by carvacrol in human keratinocytes. […]
On the technique in general: In an ELISA, binding on a coated surface is turned into a signal by an enzyme label.

The next data set deals with TRPV3 (WT). The data set can be described thus: in vitro. The format is cell-based, human. The conditions noted are these: human.
The next data set concerns IL-8. The experiment in a line: ELISA, carvacrol-induced IL-8 release in NHEK. Type of data set: cell-based, human. The following applies: 300 µM carvacrol alone, 24 h.
Excerpt: as §1, §2

In another data set the test system is IL-6. The data set can be described thus: ELISA, carvacrol-induced IL-6 release in NHEK. The format is cell-based, human. The following applies: 300 µM carvacrol alone, 24 h, not significant.
Excerpt: as §1, §2

Another data set has as its target T1, TRPA1 (Homo sapiens, UniProt O75762).
T1 construct: host or cells: HEK 293T (transient transfection)
The following applies: read-out: IC50 (µM), channel inhibited TRPA1; cited from earlier work.

T1 sequence (O75762 whole entry, species assumed): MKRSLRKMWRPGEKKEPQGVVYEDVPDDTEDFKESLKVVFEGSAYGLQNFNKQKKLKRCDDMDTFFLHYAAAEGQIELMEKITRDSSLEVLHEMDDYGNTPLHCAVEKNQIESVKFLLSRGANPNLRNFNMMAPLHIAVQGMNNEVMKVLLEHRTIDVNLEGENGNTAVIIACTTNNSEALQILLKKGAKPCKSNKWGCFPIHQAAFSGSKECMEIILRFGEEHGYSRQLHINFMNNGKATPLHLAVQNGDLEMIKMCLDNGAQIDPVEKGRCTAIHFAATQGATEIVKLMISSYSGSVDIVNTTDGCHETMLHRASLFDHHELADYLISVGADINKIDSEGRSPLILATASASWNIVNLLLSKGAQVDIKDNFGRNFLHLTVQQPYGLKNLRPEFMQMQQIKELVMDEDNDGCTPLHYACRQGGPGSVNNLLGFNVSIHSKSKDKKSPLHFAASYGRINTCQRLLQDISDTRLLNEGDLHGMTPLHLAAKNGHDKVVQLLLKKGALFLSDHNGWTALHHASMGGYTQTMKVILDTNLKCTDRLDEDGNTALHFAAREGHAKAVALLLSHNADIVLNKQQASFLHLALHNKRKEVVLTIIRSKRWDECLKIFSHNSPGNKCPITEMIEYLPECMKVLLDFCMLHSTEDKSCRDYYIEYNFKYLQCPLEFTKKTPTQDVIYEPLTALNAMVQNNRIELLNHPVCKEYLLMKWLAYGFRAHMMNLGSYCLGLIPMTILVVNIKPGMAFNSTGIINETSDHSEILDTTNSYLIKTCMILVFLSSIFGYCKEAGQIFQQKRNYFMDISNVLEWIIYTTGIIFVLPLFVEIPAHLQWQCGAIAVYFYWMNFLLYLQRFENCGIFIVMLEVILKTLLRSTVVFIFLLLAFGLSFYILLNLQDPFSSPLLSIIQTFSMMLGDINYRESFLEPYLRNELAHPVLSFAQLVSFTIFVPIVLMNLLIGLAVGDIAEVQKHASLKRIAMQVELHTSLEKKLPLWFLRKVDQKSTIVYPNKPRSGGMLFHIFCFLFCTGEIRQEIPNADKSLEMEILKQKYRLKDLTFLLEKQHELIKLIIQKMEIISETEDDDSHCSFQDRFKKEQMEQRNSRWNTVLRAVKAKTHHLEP

Take `COc1c(O)cc(O)c2c(=O)c3cccc(O)c3n(C)c12` [Citrusinine II]: the IC50 in the data set on TRPV3 was 12.4 ± 1.86 µM.

Take `COc1ccc2ccc(=O)oc2c1CC=C(C)C` [Coumarin osthole]: the IC50 in the data set on TRPV3 was 37 ± 1.9 µM.

On to `O=C(/C=C/c1ccc(O)c(O)c1)O[C@@H]1CC(O)(C(=O)O)C[C@@H](OC(=O)/C=C/c2ccc(O)c(O)c2)C1O` (stereo partly shown) [Isochlorogenic acid A], for which the IC50 in the data set on TRPV3 is 2.7 ± 1.3 µM.

On to `O=C(C=Cc1ccc(O)c(O)c1)OC1CC(O)(C(=O)O)CC(O)C1OC(=O)C=Cc1ccc(O)c(O)c1` (stereo not shown) [Isochlorogenic acid B], for which the IC50 in the data set with TRPV3 was 0.9 ± 0.3 µM.

Take `CCC=CC1CCC2(CC3CCC4C(C(=O)OCCCCCCCCCCCCCCCC(=O)N(CCCN)CCCCN)C5(CCCC(C)O5)NC(=[N+]34)N2)O1` (stereo not shown) [Monanchomycalin B]: the results for the IC50 in the data set with TRPV1, in the data set on TRPV3 and in the data set on TRPV2 were 6.02 ± 0.36 µM, 3.25 ± 0.6 µM and 2.84 ± 1.01 µM, respectively.

For the compound `C[C@@H]1O[C@@H](O[C@@H]2[C@@H](O)[C@H](OCCc3ccc(O)c(O)c3)O[C@H](CO)[C@H]2OC(=O)/C=C/c2ccc(O)c(O)c2)[C@H](O)[C@H](O)[C@H]1O` [Verbascoside], the IC50 with TRPV3 was 14.1 ± 3.3 µM.

As for `Cc1ccc(C(C)C)cc1O` [carvacrol, reference compound], in the data set with TNF-α, the “Effect on TNF-α levels” value is reported as “non-significant effect”. Also, the viability at 24 h, 300 µM with TRPV3 (WT) came out at 75.6%. The “Effect on IL-8 release” value in the data set with IL-8 is reported as “significantly stimulated”. In addition, the “Effect on IL-6 secretion” value in the data set with IL-6 was “slight increase”.

Forsythoside B: in the data set with TRPV3, the IC50 was 6.7 ± 0.7 µM.

Turning to Pulchranin A, the IC50 with TRPV1 was 27.5 ± 1.4 µM; on TRPA1, 174 ± 7.4 µM; in the data set on TRPV3, 71.8 ± 9.4 µM.

Consider Pulchranin C, for which the results for the IC50 in the data set on TRPV1, on TRPA1 and in the data set with TRPV3 were 183 ± 27 µM, over 200 µM and over 200 µM, respectively.
